From patent US5234934A, “Aminopropanol derivatives, process for their preparation and pharmaceutical compositions comprising the same” (priority 1989, dated 1993)
Read-outs that look alike come from different tables or passages of the source.

Legend:
hexobarbital narcosis = assay: narcosis potentiating effect (hexobarbital sleeping time); conditions: for ED50: Mus musculus, po, read-out: ED50 (narcosis potentiation); for TI (therapeutic index): narcosis potentiation, mice, po.
Method: The narcosis potentiating effect of the compounds of the invention were examined on white mice, with 6 animals in each group. The mice were administered orally with the compounds of the invention, then both the control and the test groups were intravenously added 40 mg/kg of hexobarbital in order to make the mice sleep (Kaergard et al.).

[1] = acute toxicity test in mice (Litchfield and Wilcoxon); type: in vivo, mouse; conditions: mouse, in vivo, po., 14 days observation
Method: The test for acute toxicity was carried out by using 10 white mice (CFLP strain) (both male and female), weighing 18 to 22 g in each dose group. The compounds of the invention were administered orally in a dose of 20 ml/kg.
The animals were kept in a plastic box on wood chips in a room of room temperature. They could consume tap water and standard mouse feed ad libitum. The toxicity data were determined by the method of Litchfield and Wilcoxon (Litchfield, J. T., Wilcoxon, F. W.: J. Pharmacol. Exp. Ther. 96, 99/1949/).

[2] = tested on: peristalty of stomach and intestines; assay: effect exerted on the peristalty of stomach and intestines (Stickney et al., carbon suspension); type: in vivo, mouse; conditions: for ED50: Mus musculus, read-out: ED50 (antiperistaltic); for TI (therapeutic index): antiperistaltic
Method: The antiperistaltic effect of the compounds was examined by the method of Stickney et al. on white mice of both sexes, weighing 20 to 25 g. The compounds to be tested were administered per os 60 minutes before the addition of carbon suspension to groups containing 10 mice each. The animals of the control groups were treated at the same time and in the same manner with the carrier only. The mice were killed 10 minutes after the addition of the carbon suspension, and the whole length of the intestines as well as the length of the intestines filled with carbon suspension were measured.

gastric acid secretion = gastric acid secretion test (Shay); type: in vivo, rat; conditions: Rattus norvegicus, read-out: Inhibition of free acid, %
Method: The test was carried out according to Shay's operational method. […] On the day of the test the pylorus of the animals was bound under ether narcosis. The test compounds were administered orally 3 hours before the operation. The animals of the control group were administered with the carrier only. 4 hours after the operation the stomach was removed, the content thereof was centrifuged and the amount of free acid was determined by titration with 0.1N sodium hydroxide.

nervus ischiadicus = assay: local analgesic effect (Truant d'Amato's method); type: in vivo; conditions: for EC50 %: 0.2 ml injected around nervus ischiadicus; for Duration of effect: in a conc. of 0.5%
Method: The tests were carried out according to Truant d'Amato's method. 0.2 ml of test material was injected around the nervus ischiadicus in the middle of femur with a needle of 1 cm length. The criterion of analgesic effect was the lack of the motoric control of foot muscles.
The duration of effect was registered and the 50 percentile effective concentration (EC50) was calculated on the basis of the dose-effect curve. Lidocain was used as comparative material. (Truant, A. P., D'Amato, D.: Acta Chir Scand. 116, 351/1958/)

[3] = tested on: aconitine-induced ECG alterations; assay: animal or person; type: in vivo, rat; conditions: Rattus norvegicus, iv, read-out: Effect % (antiarrhythmic)
Method: The test was carried out by using the modified method of Marmo et al. on rats weighing 160 to 200 g. The animals were narcotised by ethyl uretane (1.2 g/kg ip.). Aconitin was administered intravenously in a dose of 75 /ug/kg in the form of a bolus injection. The ECG alterations were monitored in standard II lead by 5 minutes after the administration of aconitine. The observed alterations were classified into classes 0 to 5. The compounds of the invention were administered 2 minutes or 60 minutes before the parenteral or oral administration of aconitine, respectively. […]
class 1: sometimes an extrasystole occurs class 2: each second one is an extrasystole class 3: extrasystoles in groups class 4: each one is an extrasystole class 5: fibrillation, death
(Marmo, E., DiGiacomo, S., Imperatore, A.: Arzeimittel-Forschung 20, 12/1970/)

With `CN1CCN(CC(O)CO/N=C2\CCCCCC\C2=C/c2ccccc2)CC1` (racemic) [Example 20, R,S-2-(E)-Phenylmethylene-1-(E)-[3-(4-methyl-1-piperazinyl)-2-hydroxy-propoxyimino]-cyclooctane] the ED50 (hexobarbital narcosis) was 21.5 mg/kg, the “TI (therapeutic index)” value (hexobarbital narcosis) was over 46.5 and the LD50 at 336 h [1] was over 1000 mg/kg. For the same molecule, the ED50 ([2]; po., mice) was about 100 mg/kg and the “TI (therapeutic index)” value ([2]; po., mice) was “about 10”.
For `OC(CO/N=C1\CCCC\C1=C/c1ccccc1)CN1CCN(Cc2ccccc2)CC1` (racemic) [Example 6, R,S-2-(E)-Phenylmethylene-1-(E)-[3-(4-phenylmethyl-1-piperazinyl)-2-hydroxy-propoxyimino]-cyclohexane], the LD50 at 336 h [1] was over 1000 mg/kg, the ED50 ([2]; po., mice) was 140 mg/kg and the “TI (therapeutic index)” value ([2]; po., mice) was 7.
With `COc1cc(C(=S)N2CCOCC2)cc(OC)c1OC` [Trithiozine, reference compound] the inhibition in vivo at 100 mg/kg (gastric acid secretion; po) was 30% and the inhibition in vivo at 400 mg/kg (gastric acid secretion; po) was 63%.
With `OC(CO/N=C1\CCCC\C1=C/c1ccccc1)CN1CCN(c2ccc(Cl)cc2)CC1` (racemic) [Example 12, R,S-2-(E)-Phenylmethylene-1-(E)-{[4-(4-chlorophenyl)-1-piperazinyl]-2-hydroxy-propoxyimino}-cyclohexane] the LD50 at 336 h [1] was 1000 mg/kg, the ED50 ([2]; po., mice) was about 200 mg/kg and the “TI (therapeutic index)” value ([2]; po., mice) was “about 5”.
In the case of `CC(C)NCC(O)CO/N=C1\CCCCCC\C1=C/c1ccccc1` (racemic) [Example 48, R,S-2-(E)-Phenylmethylene-1-(E)-[3-(1-methylethyl-amino)-2-hydroxypropxyimino]-cyclooctane], the EC50 % (nervus ischiadicus) is reported as 0.31%, the Duration of effect (nervus ischiadicus) is reported as 122 min and the change in vivo at 4 mg/kg [3] is reported as -43.5%. For the same molecule, the inhibition in vivo at 100 mg/kg (gastric acid secretion; dose 100 mg/kg po., rats) was 75% and the LD50 at 336 h [1] was over 1000 mg/kg.
For `CCCCNCC(O)CO/N=C1\CCCC\C1=C/c1ccc(Cl)cc1` (racemic) [Example 29, R,S-2-(E)-(4-Chlorophenyl-methylene)-1-(E)-(3-butylamino-2-hydroxy-propoxyimino)-cyclohexane], the ED50 (hexobarbital narcosis) was 30 mg/kg, the “TI (therapeutic index)” value (hexobarbital narcosis) was 43 and the inhibition in vivo at 260 mg/kg (gastric acid secretion; dose 260 mg/kg po., rats) was 87%. It also gave an LD50 at 336 h [1] of 1300 mg/kg.
`COc1ccc(/C=C2\CCCC\C2=N/OCC(O)CNC2CC2)cc1` (racemic) [Example 40, R,S-2-(E)-(4-Methoxyphenyl-methylene)-1-(E)-(3-cyclopropylamino-2-hydroxy-propoxyimino)-cyclohexane] gave an EC50 % (nervus ischiadicus) of 0.19%, a Duration of effect (nervus ischiadicus) of 68 min and an inhibition in vivo at 160 mg/kg (gastric acid secretion; dose 160 mg/kg po., rats) of 57%. For the same molecule, the LD50 at 336 h [1] was 800 mg/kg.
For `OC(CO/N=C1\CCCCC\C1=C/c1ccccc1)CN1CCOCC1` (racemic) [Example 15, R,S-2-(E)-Phenylmethylene-1-(E)-(3-morpholino-2-hydroxypropoxyimino)-cycloheptane], the LD50 at 336 h [1] was over 1000 mg/kg, the ED50 ([2]; po., mice) was 140 mg/kg and the “TI (therapeutic index)” value ([2]; po., mice) was 7.
`CCCCNCC(O)CO/N=C1\CCCC\C1=C/c1ccc(Cl)c(Cl)c1` (racemic) [Example 33, R,S-2-(E)-(3,4-Dichlorophenyl-methyl)-1-(E)-(3-butylamino-2-hydroxy-propoxyimino)-cyclohexane] showed an inhibition in vivo at 200 mg/kg (gastric acid secretion; dose 200 mg/kg po., rats) of 100% and an LD50 at 336 h [1] of over 1000 mg/kg.
For `CN1CCN(CC(O)CO/N=C2\CCCC\C2=C/c2ccccc2)CC1` (racemic) [Example 4, R,S-2-(E)-Phenylmethylene-1-(E)-[3-(4-methyl-1-piperazinyl)-2'-hydroxy-propoxyimino]-cyclohexane], the inhibition in vivo at 200 mg/kg (gastric acid secretion; dose 200 mg/kg po., rats) was 77% and the LD50 at 336 h [1] was 1800 mg/kg.
`CN(CC(O)CO/N=C1\CCCC\C1=C/c1ccc(Cl)cc1)C1CCCCC1` (racemic) [Example 45, R,S-2-(E)-(4-Chlorophenyl-methylene)-1-(E)-[3'-(N-methyl-N-cyclohexylamino)-2-hydroxy-propoxyimino]-cyclohexane] showed an inhibition in vivo at 200 mg/kg (gastric acid secretion; dose 200 mg/kg po., rats) of 100% and an LD50 at 336 h [1] of over 1000 mg/kg.
With `CC(C)N(CC(O)CO/N=C1\CCC\C1=C/c1ccccc1)C(C)C` (racemic) [Example 21, R,S-2-(E)-Phenylmethylene-{3-[bis-(1-methylethyl)-amino]-2-hydroxy-propoxyimino}-cyclopentane] the EC50 % (nervus ischiadicus) was 0.24%, the Duration of effect (nervus ischiadicus) was 89 min and the change in vivo at 4 mg/kg [3] was -46%. The LD50 at 336 h [1] was 700 mg/kg.
For `COc1ccc(Cc2nccc3cc(OC)c(OC)cc23)cc1OC` [Papaverine, reference compound], the “inhibition (antiperistaltic)” value ([2]; 280 mg/kg po., mice) was 36% and the ED50 ([2]; po) was over 280 mg/kg.
In the case of `CN/C(=N/CCSCc1nc[nH]c1C)NC#N` [Cimetidine, reference compound], the inhibition in vivo at 100 mg/kg (gastric acid secretion; po) is reported as 66% and the inhibition in vivo at 200 mg/kg (gastric acid secretion; po) is reported as 91%.
In the case of `CC(C)CNCC(O)CO/N=C1\CCCC\C1=C/c1ccc(Cl)cc1` (racemic) [Example 30, R,S-2-(E)-(4-Chlorophenyl-methylene)-1-(E)-[3-(2-methylpropylamino)-2-hydroxy-propoxyimino]-cyclohexane], the LD50 at 336 h [1] is reported as 1100 mg/kg, the ED50 ([2]; po., mice) is reported as 130 mg/kg and the “TI (therapeutic index)” value ([2]; po., mice) is reported as 8.
With `C#CC(C)(C)NCC(O)CO/N=C1\CCCC\C1=C/c1ccc(Cl)cc1` (racemic) [Example 32, R,S-2-(E)-(4-Chlorophenyl-methylene)-1-(E)-[3-(1,1-dimethylpropin-2-yl-amino)-2-hydroxy-propoxyimino]-cyclohexane] the ED50 (hexobarbital narcosis) was 50 mg/kg, the “TI (therapeutic index)” value (hexobarbital narcosis) was over 40 and the inhibition in vivo at 400 mg/kg (gastric acid secretion; dose 400 mg/kg po., rats) was 62%. It also gave an LD50 at 336 h [1] of over 2000 mg/kg.
With `OC(CO/N=C1\CCCCCC\C1=C/c1ccccc1)CN1CCOCC1` (racemic) [Example 18, R,S-2-(E)-Phenylmethylene-1-(E)-(3-morpholino-2-hydroxy-propoxyimino)-cyclooctane] the change in vivo at 4 mg/kg [3] was -50%, the ED50 (hexobarbital narcosis) was 25 mg/kg and the “TI (therapeutic index)” value (hexobarbital narcosis) was over 40. For the same molecule, the inhibition in vivo at 200 mg/kg (gastric acid secretion; dose 200 mg/kg po., rats) was 68% and the LD50 at 336 h [1] was over 1000 mg/kg.
Work on `CCN(CC)CC(=O)Nc1c(C)cccc1C` [Lidocain, reference compound] yielded an EC50 % (nervus ischiadicus) of 0.19% and a Duration of effect (nervus ischiadicus) of 34 min.
In the case of `OC(CO/N=C1\CCCC\C1=C/c1ccccc1)CN1CCN(c2ccccc2)CC1` (racemic) [Example 5, R,S-2-(E)-Phenylmethylene-1-(E)-[3-(4-phenyl-1-piperazinyl)-2-hydroxy-propoxyimino]-cyclohexane], the LD50 at 336 h [1] is reported as over 1000 mg/kg, the ED50 ([2]; po., mice) is reported as 70 mg/kg and the “TI (therapeutic index)” value ([2]; po., mice) is reported as 14.
For `OCCN1CCN(CC(O)CO/N=C2\CCCC\C2=C/c2ccccc2)CC1` (racemic) [Example 13], the inhibition in vivo at 200 mg/kg (gastric acid secretion; dose 200 mg/kg po., rats) was 74% and the LD50 at 336 h [1] was over 1000 mg/kg.
With `COc1ccccc1/C=C1\CCCC\C1=N/OCC(O)CN1CCN(c2ccccc2OC)CC1` (racemic) [Example 38, R,S-2-(E)-(2-Methoxyphenyl-methylene)-1-(E)-{[4-(2-methoxyphenyl)-1-piperazinyl]-2-hydroxy-propoxyimino}-cyclohexane] the ED50 (hexobarbital narcosis) was 61 mg/kg, the “TI (therapeutic index)” value (hexobarbital narcosis) was 16 and the LD50 at 336 h [1] was over 1000 mg/kg. The ED50 ([2]; po., mice) was 23 mg/kg and the “TI (therapeutic index)” value ([2]; po., mice) was 44.
`COc1ccc(/C=C2\CCCC\C2=N/OCC(O)CNCCCN(C)C)cc1` (racemic) [Example 41, R,S-2-(E)-(4-Methoxyphenyl-methylene)-1-(E)-[3-(3-dimethylamino-1-propylamino)-2-hydroxy-propoxyimino]-cyclohexane] showed an inhibition in vivo at 200 mg/kg (gastric acid secretion; dose 200 mg/kg po., rats) of 67% and an LD50 at 336 h [1] of over 1000 mg/kg.
